Activity calls are given as the source filed them. The rule behind the calls is not given here.
Legend:
HCT-116 = assay: Induction of apoptosis in human HCT116 cells expressing KRAS mutant assessed as depolarization of mitochondrial membrane after 24 hrs by flow cytometry; format: functional, cell-based
HT-29 [1] = assay: Induction of apoptosis in human HT-29 cells expressing BRAF mutant assessed as activation of caspase-3 at 200 uM after 10 mins by flow cytometry relative to control; format: functional
HT-29 [2] = assay: Induction of apoptosis in human HT-29 cells expressing BRAF mutant assessed as depolarization of mitochondrial membrane after 24 hrs by flow cytometry; format: functional, cell-based
HeLa = assay: Induction of apoptosis in human HeLa cells expressing wild type KRAS and BRAF assessed as depolarization of mitochondrial membrane after 24 hrs by flow cytometry; format: functional, cell-based
HT-29 [3] = assay: Induction of apoptosis in human HT-29 cells expressing BRAF mutant assessed as cell death at 200 uM after 10 mins by flow cytometry; format: functional, cell-based
[4] = Homo sapiens, HeLa, 24 h, read-out: IC50
[5] = Homo sapiens, HCT-116, 24 h, read-out: IC50
[6] = Homo sapiens, HT-29, 24 h, read-out: IC50

IC50 (HCT-116; hct-116)	IC50 (HT-29 [2]; ht-29)	IC50 (HeLa; [4])	IC50 (HCT-116; [5])	IC50 (HT-29 [2]; [6])	IC50 (HeLa; hela)	Structure (SMILES)	Activity (HT-29 [1])	Activity (HT-29 [3])	fold change (FC) (HT-29 [1])
Not Active	Not Active	129 µM				COc1ccccc1CNc1ncnc2c1sc1ccccc12			
Not Active	Not Active	118 µM				COc1ccc(CNc2ncnc3c2sc2ccccc23)cc1			
Not Active	Not Active				Not Active	Cc1ccccc1CNc1ncnc2c1sc1ccccc12			
Not Active	Not Active	105 µM				c1ccc(CNc2ncnc3c2sc2ccccc23)cc1			

Continued, compound first:

Structure (SMILES)	IC50 (HCT-116; hct-116)	IC50 (HT-29 [2]; ht-29)	IC50 (HeLa; [4])	IC50 (HCT-116; [5])	IC50 (HT-29 [2]; [6])	IC50 (HeLa; hela)	Activity (HT-29 [1])	Activity (HT-29 [3])	fold change (FC) (HT-29 [1])
c1ccc(Nc2ncnc3sc4ccccc4c23)cc1	Not Active	Not Active	> 130 µM				Active		
COc1ccccc1Nc1ncnc2sc3ccccc3c12	Not Active	Not Active	> 130 µM				Active		
CN(C)c1ncnc2sc3ccccc3c12	Not Active	Not Active	102 µM						
COc1ccc(Nc2ncnc3sc4ccccc4c23)cc1			109 µM	92 µM	117 µM			Active	10
Cc1ccccc1CNc1ncnc2sc3ccccc3c12	Not Active	Not Active	> 130 µM						
c1ccc(Nc2ncnc3c2sc2ccccc23)cc1	Not Active	Not Active				Not Active			
Cc1ccccc1Nc1ncnc2sc3ccccc3c12			129 µM	101 µM	120 µM			Active	10
Cc1ccccc1Nc1ncnc2c1sc1ccccc12			77.7 µM	121 µM	127 µM				
c1ccc(CNc2ncnc3sc4ccccc4c23)cc1			113 µM	> 130 µM	126 µM				

Reference: ChEMBL document CHEMBL2157913, “Synthesis and evaluation of apoptosis induction of thienopyrimidine compounds on KRAS and BRAF mutated colorectal cancer cell lines” (Bioorg Med Chem, 2012)
